Measured values reported in patent US20260022143A1, “Cyclic Peptide Inhibitors of IL-23” (JANSSEN PHARMACEUTICA NV, priority 2022, published 2026).
Starred links: 1 amine or outer side, 2 acyl side, 3 side chain; linkers in the order of their positions; H or OH if unused. Positions of bridges follow the written chain, without caps; N, C: chain ends. Non-standard residues stand in square brackets, D forms with d. Residues, ends and D or L forms follow the SMILES beside them. *: point of attachment. Trp(7-(3-AcNH-Ph)) = CC(=O)Nc1cccc(-c2cccc3c(C[C@H](N)C(=O)O)c[nH]c23)c1; Me3N+(CH2)2O(CH2)2O(CH2)2CO = C[N+](C)(C)CCOCCOCCC(=O)*; CH2CH2OCH2CH2OCH2CH2NMe3+ = C[N+](C)(C)CCOCCOCC*; Phe(4-N3) = [N-]=[N+]=Nc1ccc(C[C@H](N)C(=O)O)cc1; Trp(7-Me) = Cc1cccc2c(C[C@H](N)C(=O)O)c[nH]c12; X20 = C[N+](C)(C)CC[C@H](N[*:1])C(=O)[*:2]; X15 = CC(=O)N(C)C[C@H](N[*:1])C(=O)[*:2]; 2Nal = N[C@@H](Cc1ccc2ccccc2c1)C(=O)O; 3Pal = N[C@@H](Cc1cccnc1)C(=O)O; Lys(Me) = CNCCCC[C@H](N)C(=O)O; Agb = N=C(N)NCC[C@H](N)C(=O)O; Pen = CC(C)(S)[C@H](N)C(=O)O; X11 = N=C(N)NCCOCCOCCC(=O)*; Thp = NC1(C(=O)O)CCOCC1; X17 = C[N+]1(CC*)CCOCC1; X3 = C[N+](C)(C)CCCCC*; Sar = CNCC(=O)O

Tests used:
[1] = Exposed Polar Surface Area (EPSA); format: physicochemical; details: SFC on Chirex 3014 column; sample 1 mM DMSO stock; read-out: EPSA
Outline: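 SFC retention on a Chirex 3014 (S)-valine/(R)-1-(α-naphthyl)ethylamine column, 35 °C, CO2 with MeOH (20 mM ammonium formate) gradient 5–60% at 20%/min, 14 MPa outlet. Retention times converted to EPSA (Å^2) via linear calibration with 8 standards; samples from 1 mM DMSO stock, run in duplicate.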

IL-23R = molecular target: T1, IL-23R (Homo sapiens, UniProt Q5VWK5); test: IL23R Reporter Assay; format: cell-based; details: HEK293 cells containing IL-23R, IL-12RP1 and STAT-inducible firefly luciferase reporter; 10 ng/mL IL-23 (EC90); 5 h at 37° C.; read-out: IL23R Reporter Assay
T1 construct: host or cells: HEK293
T1 sequence (Q5VWK5 24-629): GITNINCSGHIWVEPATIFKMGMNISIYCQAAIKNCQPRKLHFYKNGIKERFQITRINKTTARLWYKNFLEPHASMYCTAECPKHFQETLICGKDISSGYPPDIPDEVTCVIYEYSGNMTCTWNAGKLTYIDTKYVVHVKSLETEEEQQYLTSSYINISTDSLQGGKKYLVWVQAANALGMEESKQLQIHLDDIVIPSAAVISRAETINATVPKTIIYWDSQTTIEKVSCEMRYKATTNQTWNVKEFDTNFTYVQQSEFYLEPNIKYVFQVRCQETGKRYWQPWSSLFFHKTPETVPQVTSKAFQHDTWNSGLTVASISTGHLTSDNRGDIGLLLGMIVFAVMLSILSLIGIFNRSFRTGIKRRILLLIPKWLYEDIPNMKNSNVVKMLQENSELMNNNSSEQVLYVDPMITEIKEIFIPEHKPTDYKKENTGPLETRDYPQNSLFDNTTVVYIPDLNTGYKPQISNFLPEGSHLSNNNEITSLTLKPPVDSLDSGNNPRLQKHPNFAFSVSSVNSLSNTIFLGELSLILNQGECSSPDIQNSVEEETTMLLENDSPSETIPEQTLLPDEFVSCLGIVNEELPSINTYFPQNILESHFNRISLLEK

| SMILES | EPSA [1] | IC50 (IL-23R) |
| --- | --- | --- |
| CC(=O)N(C)CCCC[C@@H]1NC(=O)[C@H](Cc2c[nH]c3c(C)cccc23)NC(=O)[C@H]([C@@H](C)O)NC(=O)[C@H](CC(=O)N(C)C)NC(=O)[C@@H](NC(=O)CCOCCOCCNC(=N)N)C(C)(C)SSC(C)(C)[C@@H](C(=O)N[C@@H](Cc2ccc(OCCOCCOCC[N+](C)(C)C)cc2)C(=O)N[C@@H](Cc2ccc3ccccc3c2)C(=O)NC2(C(=O)N[C@@H](CCCCN(C)C(C)=O)C(=O)N[C@@H](CC(N)=O)C(=O)N[C@@H](Cc3cccnc3)C(=O)N(C)CC(=O)N(C)C)CCOCC2)NC1=O [compound 406, cPEG3gCO-Pen(3)-N(N(Me)2)-T-7MeW-K(NMeAc)-Pen(3)-APEG3F-2Nal-THP-K(NMeAc)-N-3Pya-Sar-CON(Me)2] (X11-[Pen]D(NMe2)T[Trp(7-Me)][Lys(Me)](Ac)[Pen]Y(CH2CH2OCH2CH2OCH2CH2NMe3+)[2Nal][Thp][Lys(Me)](Ac)N[3Pal][Sar]-NMe2; disulfide 1-6) | 150 A^2 | 2.1 nM |
| CCCCCCCCCCCC(=O)N[C@@H](CCC(=O)NCCOCCOCC(=O)NCCOCCOCC(=O)NCCOCCOCC(=O)NCCOCCOCC(=O)NCCCC[C@H](NC(=O)COCCOCCNC(=O)COCCOCCNC(=O)COCCOCCNC(=O)COCCOCCNC(=O)CC[C@H](NC(=O)CCCCCCCCCCC)C(=O)O)C(=O)NCCOCCOCC(=O)NCCOCCOCC(=O)NCCCC[C@@H](C(N)=O)N(C)C(=O)[C@H](Cc1cccnc1)NC(=O)[C@H](CC(N)=O)NC(=O)[C@H](CCCCN(C)C(C)=O)NC(=O)C1(NC(=O)[C@H](Cc2ccc3ccccc3c2)NC(=O)[C@H](Cc2ccc(OCCCCC[N+](C)(C)C)cc2)NC(=O)[C@H]2NC(=O)[C@H](CCCCNC(C)=O)NC(=O)[C@H](Cc3c[nH]c4c(C)cccc34)NC(=O)[C@H]([C@@H](C)O)NC(=O)[C@H](CC(=O)N(C)C)NC(=O)[C@@H](NC(=O)CCOCCOCC[N+](C)(C)C)C(C)(C)SSC2(C)C)CCOCC1)C(=O)O [compound 409, cPEG3aCO-Pen(3)-N(N(Me)2)-T-7MeW-K(Ac)-Pen(3)-TMAPF-2Nal-THP-K(NMeac)-N-3Pya-NMeK(PEG2PEG2K(PEG2PEG2PEG2PEG2gEC12)2)-CONH2] | 198 A^2 | 47 nM |
| CC(=O)N(C)CCCC[C@@H]1NC(=O)[C@H](Cc2c[nH]c3c(C)cccc23)NC(=O)[C@H]([C@@H](C)O)NC(=O)[C@H](CCNC(=N)N)NC(=O)[C@@H](NC(=O)CCOCCOCC[N+](C)(C)C)C(C)(C)SSC(C)(C)[C@@H](C(=O)N[C@@H](Cc2ccc(OCCOCCOCC[N+](C)(C)C)cc2)C(=O)N[C@@H](Cc2ccc3ccccc3c2)C(=O)NC2(C(=O)N[C@@H](CCCCN(C)C(C)=O)C(=O)N[C@@H](CC(N)=O)C(=O)N[C@@H](Cc3cccnc3)C(=O)N(C)CC(=O)N(C)C)CCOCC2)NC1=O [compound 411, cPEG3aCO-Pen(3)-Gab-T-7MeW-K(NMeAc)-Pen(3)-APEG3F-2Nal-THP-K(NMeAc)-N-3Pya-Sar-CON(Me)2] ({Me3N+(CH2)2O(CH2)2O(CH2)2CO}-[Pen][Agb]T[Trp(7-Me)][Lys(Me)](Ac)[Pen]Y(CH2CH2OCH2CH2OCH2CH2NMe3+)[2Nal][Thp][Lys(Me)](Ac)N[3Pal][Sar]-NMe2; disulfide 1-6 (inferred)) | 155 A^2 | 2.1 nM |
| CC(=O)NCCCC[C@@H]1NC(=O)[C@H](Cc2c[nH]c3c(C)cccc23)NC(=O)[C@H]([C@@H](C)O)NC(=O)[C@H](CC(=O)N(C)C)NC(=O)[C@@H](NC(=O)CCOCCOCC[N+](C)(C)C)C(C)(C)SSC(C)(C)[C@@H](C(=O)N[C@@H](Cc2ccc(OCCCCC[N+](C)(C)C)cc2)C(=O)N[C@@H](Cc2ccc3ccccc3c2)C(=O)NC2(C(=O)N[C@@H](CN(C)C(C)=O)C(=O)N[C@@H](CC(N)=O)C(=O)N[C@@H](Cc3cccnc3)C(=O)N(C)CC(=O)N(C)C)CCOCC2)NC1=O [compound 415, cPEG3aCO-Pen(3)-N(N(Me)2)-T-7MeW-K(Ac)-Pen(3)-TMAPF-2Nal-THP-Dap(NMeAc)-N-3Pya-Sar-CON(Me)2] ({Me3N+(CH2)2O(CH2)2O(CH2)2CO}-[Pen]D(NMe2)T[Trp(7-Me)]K(Ac)[Pen]Y(X3)[2Nal][Thp][X15]N[3Pal][Sar]-NMe2; disulfide 1-6 (inferred)) | 148 A^2 | 4.4 nM |
| CC(=O)N(C)CCCC[C@@H]1NC(=O)[C@H](Cc2c[nH]c3c(C)cccc23)NC(=O)[C@H]([C@@H](C)O)NC(=O)[C@H](CC[N+](C)(C)C)NC(=O)[C@@H](NC(=O)CCOCCOCC[N+](C)(C)C)C(C)(C)SSC(C)(C)[C@@H](C(=O)N[C@@H](Cc2ccc(OCCOCCOCC[N+](C)(C)C)cc2)C(=O)N[C@@H](Cc2ccc3ccccc3c2)C(=O)NC2(C(=O)N[C@@H](CCCCN(C)C(C)=O)C(=O)N[C@@H](CC(N)=O)C(=O)N[C@@H](Cc3cccnc3)C(=O)N(C)CC(=O)N(C)C)CCOCC2)NC1=O [compound 416, cPEG3aCO-Pen(3)-Dab(Me)3-T-7MeW-K(NMeAc)-Pen(3)-APEG3F-2Nal-THP-K(NMeAc)-N-3Pya-Sar-CON(Me)2] ({Me3N+(CH2)2O(CH2)2O(CH2)2CO}-[Pen][X20]T[Trp(7-Me)][Lys(Me)](Ac)[Pen]Y(CH2CH2OCH2CH2OCH2CH2NMe3+)[2Nal][Thp][Lys(Me)](Ac)N[3Pal][Sar]-NMe2; disulfide 1-6) | 166 A^2 | 1.2 nM |
| CC(=O)NCCCC[C@@H]1NC(=O)[C@H](Cc2c[nH]c3c(C)cccc23)NC(=O)[C@H]([C@@H](C)O)NC(=O)[C@H](CC(N)=O)NC(=O)[C@@H](NC(C)=O)C(C)(C)SSC(C)(C)[C@@H](C(=O)N[C@@H](Cc2ccc(N=[N+]=[N-])cc2)C(=O)N[C@@H](Cc2ccc3ccccc3c2)C(=O)NC2(C(=O)N[C@@H](CCCCNC(C)=O)C(=O)N[C@@H](CC(N)=O)C(=O)N[C@@H](Cc3cccnc3)C(=O)N(C)CC(N)=O)CCOCC2)NC1=O [compound 417] (Ac-[Pen]NT[Trp(7-Me)]K(Ac)[Pen][Phe(4-N3)][2Nal][Thp]K(Ac)N[3Pal][Sar]-NH2; disulfide 1-6 (inferred)) | 167 A^2 | 1.4 nM |
| CC(=O)NCCCC[C@@H]1NC(=O)[C@H](Cc2c[nH]c3c(C)cccc23)NC(=O)[C@H]([C@@H](C)O)NC(=O)[C@H](CC(N)=O)NC(=O)[C@@H](NC(=O)CCOCCOCC[N+](C)(C)C)C(C)(C)SSC(C)(C)[C@@H](C(=O)N[C@@H](Cc2ccc(N=[N+]=[N-])cc2)C(=O)N[C@@H](Cc2ccc3ccccc3c2)C(=O)NC2(C(=O)N[C@@H](CCCCNC(C)=O)C(=O)N[C@@H](CC(N)=O)C(=O)N[C@@H](Cc3cccnc3)C(=O)N(C)CC(N)=O)CCOCC2)NC1=O [compound 418, cPEG3aCO-Pen(3)-N-T-7MeW-K(Ac)-Pen(3)-F(4N3)-2Nal-THP-K(Ac)-N-3Pya-Sar-CONH2] ({Me3N+(CH2)2O(CH2)2O(CH2)2CO}-[Pen]NT[Trp(7-Me)]K(Ac)[Pen][Phe(4-N3)][2Nal][Thp]K(Ac)N[3Pal][Sar]-NH2; disulfide 1-6) | 166 A^2 | 1.2 nM |
| CC(=O)N(C)CCCC[C@@H]1NC(=O)[C@H](Cc2c[nH]c3c(C)cccc23)NC(=O)[C@H]([C@@H](C)O)NC(=O)[C@H](CC(=O)N(C)C)NC(=O)[C@@H](NC(=O)CCOCCOCC[N+](C)(C)C)C(C)(C)SSC(C)(C)[C@@H](C(=O)N[C@@H](Cc2ccc(OCCOCCOCC[N+](C)(C)C)cc2)C(=O)N[C@@H](Cc2ccc3ccccc3c2)C(=O)NC2(C(=O)N[C@@H](CN(C)C(C)=O)C(=O)N[C@@H](CC(N)=O)C(=O)N[C@@H](Cc3cccnc3)C(=O)N(C)CC(=O)N(C)C)CCOCC2)NC1=O [compound 419, cPEG3aCO-Pen(3)-N(N(Me)2)-T-7MeW-K(NMeAc)-Pen(3)-APEG3F-2Nal-THP-Dap(NMeAc)-N-3Pya-Sar-CON(Me)2] ({Me3N+(CH2)2O(CH2)2O(CH2)2CO}-[Pen]D(NMe2)T[Trp(7-Me)][Lys(Me)](Ac)[Pen]Y(CH2CH2OCH2CH2OCH2CH2NMe3+)[2Nal][Thp][X15]N[3Pal][Sar]-NMe2; disulfide 1-6) | 156 A^2 | 3 nM |
| CC(=O)Nc1cccc(-c2cccc3c(C[C@@H]4NC(=O)[C@H]([C@@H](C)O)NC(=O)[C@H](CC(=O)N(C)C)NC(=O)[C@@H](NC(=O)CCOCCOCC[N+](C)(C)C)C(C)(C)SSC(C)(C)[C@@H](C(=O)N[C@@H](Cc5ccc(OCC[N+]6(C)CCOCC6)cc5)C(=O)N[C@@H](Cc5ccc6ccccc6c5)C(=O)NC5(C(=O)N[C@@H](CCCCN(C)C(C)=O)C(=O)N[C@@H](CC(N)=O)C(=O)N[C@@H](Cc6cccnc6)C(=O)N(C)CC(=O)N(C)C)CCOCC5)NC(=O)[C@H](CCCCN(C)C(C)=O)NC4=O)c[nH]c23)c1 [compound 421, cPEG3aCO-Pen(3)-N(N(me)2)-T-7(3NAcPh)W-K(NMeac)-Pen(3)-MMoEF-2Nal-THP-K(NMeAc)-N-3Pya-Sar-CON(Me)2] ({Me3N+(CH2)2O(CH2)2O(CH2)2CO}-[Pen]D(NMe2)T[Trp(7-(3-AcNH-Ph))][Lys(Me)](Ac)[Pen]Y(X17)[2Nal][Thp][Lys(Me)](Ac)N[3Pal][Sar]-NMe2; disulfide 1-6 (inferred)) | 168 A^2 | 1.2 nM |
